# Patent publication US10030016B2 (Sunesis Pharmaceuticals, Inc., priority 2009, dated 2018)
# Structures can show the parent of a compound that is named as a salt. Where two headings read alike, the source gives them in different places.
# How the values were obtained:
# [1] = target: PDK1 (Homo sapiens (Human), UniProt O15530); assay: PDK1 kinase assay (coupled PDK1/AKT/FAM-crosstide assay, IMAP fluorescence polarization); assay type: biochemical
# Summary of the method: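 GST-tagged human PDK1 (aa 51-359, 0.75 nM) from insect cells activated unphosphorylated GST-AKT2 (aa 140-467–PIFtide fusion, 10 nM), which phosphorylated 100 nM FAM-crosstide; 40 μM ATP, pH 7.2 Tris/MgCl2, 30 min at 25° C. IMAP fluorescence polarization read-out; ΔmP versus compound concentration fitted with a 4-parameter curve.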
# [2] = system: phospho-akt (Thr308) in PC-3 cells; assay: Inhibition of phospho-akt (Thr308) in PC-3 cells, MSD phospho-akt 308 ELISA kit; assay type: cell-based; settings: 2 hours, no serum, read-out: EC50
# Summary of the method: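 Read-out is MSD electrochemiluminescence of Akt phosphorylated at Thr308 in lysates of PC-3 cells treated 2 h with compound in serum-free medium. Wortmannin at 5 μM defined the low control and DMSO the high control.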
# [3] = inhibition of phospo-PDK1 in vitro
# [4] = Homo sapiens, inhibition of P308 Akt in PC-3 cells, MSD
# [5] = Homo sapiens, inhibition of P308 Akt in PC-3 cells using MSD
# [6] = Homo sapiens, PC-3, 2 h, inhibition of P308 Akt in PC-3 cells, MSD
# Sequence of PDK1 (O15530 51-359): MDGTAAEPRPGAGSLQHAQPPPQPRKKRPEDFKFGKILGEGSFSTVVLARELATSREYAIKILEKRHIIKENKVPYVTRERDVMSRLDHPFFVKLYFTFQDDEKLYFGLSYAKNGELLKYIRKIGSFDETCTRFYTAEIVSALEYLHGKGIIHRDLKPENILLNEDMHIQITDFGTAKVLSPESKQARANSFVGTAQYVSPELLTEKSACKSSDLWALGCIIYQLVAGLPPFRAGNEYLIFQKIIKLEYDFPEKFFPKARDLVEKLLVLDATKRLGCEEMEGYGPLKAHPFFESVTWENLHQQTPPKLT
SMILES,"IC50 [1, 3]","EC50 [2, 4]",IC50 ([1]; inhibition of PDK1 in vitro),"EC50 [2, 5]",other results
"O=C1Nc2cc(/C=C/CNc3ncccc3C(=O)NCc3ccc(F)c(F)c3)ccc2/C1=C/c1ncc[nH]1 [Example 15.12, N-(3,4-Difluoro-benzyl)-2-((E)-3-{3-[1-(1H-imidazol-2-yl)-meth-(Z)-ylidene]-2-oxo-2,3-dihydro-1H-indol-6-yl}-allylamino)-nicotinamide]",< 0.1 µM,1 to 10 µM,–,–,–
"Nc1ncnc2c1c(-c1ccc(CNc3ncc(C(F)(F)F)cc3C(=O)Nc3ccc(F)cc3)cc1)cn2CCCO [Example 322, 2-(4-(4-amino-7-(3-hydroxypropyl)-7H-pyrrolo [2,3-d]pyrimidin-5-yl)benzylamino)-N-(4-fluorophenyl)-5-(trifluoromethyl)nicotinamide]",–,–,< 0.1 µM,< 1 µM,–
"N#Cc1cnc(N[C@@H](COc2ccc3[nH]c(=O)[nH]c3c2)c2ccccc2)c(C(=O)NCc2ccc(F)c(F)c2)n1 [Example 16.11, (R)-6-cyano-N-(3,4-difluorobenzyl)-3-(2-(2-oxo-2,3-dihydro-1H-benzo[d]imidazol-5-yloxy)-1-phenylethylamino) pyrazine-2-carboxamide]",< 0.1 µM,< 1 µM,–,–,–
"O=C(NCc1ccc(F)cc1)c1cccnc1NCc1cccc(-c2c[nH]c3ncccc23)c1 [Example 1.6, 2-(3-(1H-pyrrolo[2,3-b]pyridin-3-yl)benzylamino)-N-(4-fluorobenzyl)nicotinamide]",< 0.1 µM,1 to 10 µM,–,–,–
"C[C@H](NC(=O)c1cccnc1NCc1ccc(-c2ccc3ncnc(N)c3c2)s1)c1cccnc1 [Example 3.60, (S)-2-(((5-(4-aminoquinazolin-6-yl)thiophen-2-yl)methyl)amino)-N-(1-(pyridin-3-yl)ethyl) nicotinamide (TFA salt)]",0.1 to 1 µM,1 to 10 µM,–,–,–
"Nc1ncnc2ccc(-c3ccc(CNc4ncccc4C(=O)NCc4cccc(Cl)c4)s3)cc12 [Example 3.27, 2-({[5-(4-aminoquinazolin-6-yl)thiophen-2-yl]methyl}amino)-N-(3-chlorobenzyl) pyridine-3-carboxamide (TFA salt)]",0.1 to 1 µM,–,–,–,"EC50 [2, 6]: > 10 µM"
"Cn1nc(Nc2ncccc2C(=O)NCc2ccc(F)c(F)c2)c2cc(-c3ccc4ncnc(N)c4c3)ccc21 [Example 14.2, 2-(5-(4-aminoquinazolin-6-yl)-1-methyl-1H-indazol-3-ylamino)-N-(3,4-difluorobenzyl)-nicotinamide]",< 0.1 µM,> 10 µM,–,–,–
"COc1ccc([C@H](COc2ccc([N+](=O)[O-])c(N)c2)Nc2ncccc2C(=O)N[C@@H](C)c2ccc(F)c(F)c2)cc1 [Example 16.5, 2-((R)-2-(3-amino-4-nitrophenoxy)-1-(4-methoxyphenyl)ethylamino)-N-((S)-1-(3,4-difluorophenyl)ethyl)nicotinamide]",> 5 µM,1 to 10 µM,–,–,–
"Cc1nc[nH]c1/C=C1\C(=O)Nc2cc(/C=C/CNc3ncccc3C(=O)NCc3ccc(F)c(F)c3)ccc21 [Example 15.7, N-(3,4-Difluoro-benzyl)-2-((E)-3-{3-[1-(5-methyl-3H-imidazol-4-yl)-meth-(Z)-ylidene]-2-oxo-2,3-dihydro-1H-indol-6-yl}-allylamino)-nicotinamide]",< 0.1 µM,< 1 µM,–,–,–
"CCNC(=O)c1cccnc1NCc1cccc(-c2c[nH]c3ncccc23)c1 [Example 1.11, N-ethyl-2-{[3-(1H-pyrrolo[2,3-b]pyridin-3-yl)benzyl]amino}pyridine-3-carboxamide]",> 5 µM,1 to 10 µM,–,–,–
"NCCCc1nc(-c2ccc(CNc3ncc(C(F)(F)F)cc3C(=O)NCc3ccc(F)c(F)c3)cc2)cnc1N [Example 72, 2-{4-[5-Amino-6-(3-amino-propyl)-pyrazin-2-yl]-benzyl-amino}-N-(3,4-difluoro-benzyl)-5-trifluoromethyl-nicotinamide]",–,–,< 0.1 µM,1 to 10 µM,–
"Nc1ncnc2ccc(-c3ccc(CNc4ncccc4C(=O)NCc4cc(F)c(F)c(F)c4)s3)cc12 [Example 3.23, 2-({[5-(4-aminoquinazolin-6-yl)thiophen-2-yl]methyl}amino)-N-(3,4,5-trifluorobenzyl)pyridine-3-carboxamide (TFA salt)]",< 0.1 µM,< 1 µM,–,–,–
"Nc1ncnc2ccc(-c3ccc(CNc4ncccc4C(=O)Nc4cccc(F)c4)s3)cc12 [Example 3.46, 2-({[5-(4-aminoquinazolin-6-yl)thiophen-2-yl]methyl}amino)-N-(3-fluorophenyl)pyridine-3-carboxamide (TFA salt)]",0.1 to 1 µM,1 to 10 µM,–,–,–
"Nc1ncc(-c2ccc(CNc3ncc(C(F)(F)F)cc3C(=O)Nc3ccc(F)cc3)cc2)nc1-c1cccc(O)c1 [Example 236, 2-{4-[5-Amino-6-(3-hydroxy-phenyl)-pyrazin-2-yl]-benzylamino}-N-(4-fluoro-phenyl)-5-trifluoromethyl-nicotinamide]",–,–,< 0.1 µM,1 to 10 µM,–
"C[C@H](NC(=O)c1nc(C#N)cnc1NCc1ccc(-c2cnc3[nH]nc(N)c3c2)cc1)c1ccc(F)c(F)c1 [Example 25, (S)-3-(4-(3-amino-1H-pyrazolo[3,4-b]pyridin-5-yl)benzylamino)-6-cyano-N-(1-(3,4-difluorophenyl)ethyl)pyrazine-2-carboxamide]",< 0.1 µM,< 1 µM,–,–,–
"C[C@H](NC(=O)c1cc(C#N)cnc1NCc1ccc(-c2cnc(N)c(C(=O)NCCN3CCN(C)CC3)n2)cc1)c1ccc(F)cc1 [Example 213, (S)-3-amino-6-(4-((5-cyano-3-(1-(4-fluorophenyl)ethylcarbamoyl)pyridin-2-ylamino)methyl)phenyl)-N-(2-(4-methylpiperazin-1-yl)ethyl)pyrazine-2-carboxamide]",–,–,< 0.1 µM,< 1 µM,–
"Cn1cnc2cnc3ccc(-c4cnc(CNc5ncccc5C(=O)NCc5ccc(F)c(F)c5)s4)cc3c21 [Example 384, N-(3,4-Difluoro-benzyl)-2-{[5-(1-methyl-1H-imidazo [4,5-c]quinolin-8-yl)-thiazol-2-ylmethyl]-amino}-nicotinamide]",–,–,< 0.1 µM,< 1 µM,–
"Nc1n[nH]c2ncc(-c3ccc(CNc4ncc(C(F)(F)F)cc4C(=O)Nc4ccccc4)cc3)cc12 [Example 292, 2-(4-(3-amino-1H-pyrazolo [3,4-b]pyridin-5-yl)benzylamino)-N-phenyl-5-(trifluoromethyl)nicotinamide]",–,–,< 0.1 µM,< 1 µM,–
"O=C(NCc1ccc(F)c(F)c1)c1cccnc1NCc1ccc(-c2cnc3[nH]ccc3c2)s1 [Example 2.31, 2-(((5-(1H-pyrrolo[2,3-b]pyridin-5-yl)thiophen-2-yl)methyl)amino)-N-(3,4-difluorobenzyl) nicotinamide]",0.1 to 1 µM,–,–,–,"EC50 ([2]; inhibition of P308 Akt in PC-3 cells, MSD): 1 to 10 µM"
"C[C@H](NC(=O)c1nc(C#N)cnc1NCc1ccc(-c2cnc(NCCO)cn2)cc1)c1ccc(F)c(F)c1 [Example 230, 6-Cyano-3-{4-[5-(2-hydroxy-ethylamino)-pyrazin-2-yl]-benzylamino}-pyrazine-2-carboxylic acid [(S)-1-(3,4-difluoro-phenyl)-ethyl]-amide]",–,–,< 0.1 µM,1 to 10 µM,–
"C[C@H](NC(=O)c1nc(C#N)cnc1NCc1ccc(-c2cnc(N)c(C(=O)N3CCNCC3)n2)cc1)c1ccc(F)c(F)c1 [Example 219, 3-{4-[5-Amino-6-(piperazine-1-carbonyl)-pyrazin-2-yl]-benzylamino}-6-cyano-pyrazine-2-carboxylic acid [(S)-1-(3,4-difluoro-phenyl)-ethyl]-amide]",–,–,< 0.1 µM,1 to 10 µM,–
"CC(C)Oc1cc(CNc2ncccc2C(=O)NCc2ccc(F)c(F)c2)cc(-c2ccc3ncccc3c2)c1 [Example 5.4, N-(3,4-difluorobenzyl)-2-(3-isopropoxy-5-(quinolin-6-yl)benzylamino) nicotinamide]",1 to 5 µM,–,–,–,"EC50 [2, 6]: > 10 µM"
"N#Cc1cnc(NCc2ccc(-c3c[nH]c4ncnc(N)c34)cc2)c(C(=O)Nc2ccc(F)cc2)n1 [Example 320, 3-(4-(4-amino-7H-pyrrolo[2,3-d]pyrimidin-5-yl)benzylamino)-6-cyano-N-(4-fluorophenyl) pyrazine-2-carboxamide]",–,–,< 0.1 µM,< 1 µM,–
"C[C@H](NC(=O)c1cccnc1NCc1ccc(-c2ccc3ncnc(N)c3c2)s1)c1cncc(F)c1 [Example 3.59, (S)-2-(((5-(4-aminoquinazolin-6-yl)thiophen-2-yl)methyl)amino)-N-(1-(5-(fluoropyridin-3-yl)ethyl)nicotinamide (TFA salt)]",< 0.1 µM,1 to 10 µM,–,–,–
C[C@H](NC(=O)c1cccnc1NCc1ccc(-c2ccc3ncnc(N4CC(C)(O)C4)c3c2)s1)c1ccc(F)c(F)c1 [Example 4.37],0.1 to 1 µM,1 to 10 µM,–,–,–
"Nc1ncnc2c1c(-c1ccc(CNc3ncc(C(F)(F)F)cc3C(=O)Nc3ccc(F)cc3)cc1)cn2CCO [Example 324, 2-(4-(4-amino-7-(2-hydroxyethyl)-7H-pyrrolo [2,3-d]pyrimidin-5-yl)benzylamino)-N-(4-fluorophenyl)-5-(trifluoromethyl)nicotinamide]",–,–,< 0.1 µM,< 1 µM,–
"COCCCc1nc(-c2ccc(CNc3ncc(C#N)cc3C(=O)N[C@@H](C)c3ccc(F)cc3)cc2)cnc1N [Example 92, 2-{4-[5-Amino-6-(3-methoxy-propyl)-pyrazin-2-yl]-benzyl-amino}-5-cyano-N-[(S)-1-(4-fluoro-phenyl)-ethyl]-nicotinamide]",–,–,< 0.1 µM,1 to 10 µM,–
